# Assay results published in ChEMBL document CHEMBL4261654, “Synthesis and in vitro antitumor activity of novel alkenyl derivatives of pyridoxine, bioisosteric analogs of feruloyl methane” (Bioorg Med Chem, 2018).
# Calls of active or inactive are those of the source. The calls are words filed in the database; no cut-off is given here.
# Tests used:
# MCF7 [1] = test: Antiproliferative activity against human MCF7 cells after 72 hrs by MTT assay; assay type: functional, cell-based; conditions: MCF7, 72 h
# HEK293 = test: Antiproliferative activity against human HEK293 cells after 72 hrs by MTT assay; assay type: cell-based; conditions: HEK293, 72 h
# [2] = Antiproliferative activity against HSF cells after 72 hrs by MTT assay; assay type: cell-based; conditions: Homo sapiens
# PC-3 [3] = test: Antiproliferative activity against human PC3 cells after 72 hrs by MTT assay; assay type: functional, cell-based; conditions: PC-3, 72 h
# A498 [4] = test: Antiproliferative activity against human A498 cells after 72 hrs by MTT assay; assay type: functional, cell-based; conditions: A498, 72 h
# SNB-19 [5] = test: Antiproliferative activity against human SNB19 cells after 72 hrs by MTT assay; assay type: functional, cell-based; conditions: SNB-19, 72 h
# M14 [6] = test: Antiproliferative activity against human M14 cells after 72 hrs by MTT assay; assay type: functional, cell-based; conditions: M14, 72 h
# OVCAR-4 [7] = test: Antiproliferative activity against human OVCAR4 cells after 72 hrs by MTT assay; assay type: functional, cell-based; conditions: OVCAR-4, 72 h
# NCI-H322M [8] = test: Antiproliferative activity against human NCI-H322M cells after 72 hrs by MTT assay; assay type: functional, cell-based
# HCT-15 [9] = test: Antiproliferative activity against human HCT15 cells after 72 hrs by MTT assay; assay type: functional, cell-based; conditions: HCT-15, 72 h
# HCT-116 [10] = test: Antiproliferative activity against human HCT116 cells after 72 hrs by MTT assay; assay type: functional, cell-based; conditions: HCT-116, 72 h
# MDA-MB-231 [11] = test: Antiproliferative activity against human MDA-MB-231 cells after 72 hrs by MTT assay; assay type: functional, cell-based; conditions: MDA-MB-231, 72 h
# [12] = Antioxidant activity assessed as ferric ion reducing activity at 20 to 320 umol after 20 mins by FRAP assay; assay type: functional
# [13] = Selectivity index, ratio of IC50 for HSF cells to IC50 for human MCF7 cells; assay type: toxicity; conditions: HSF cells versus MCF7 cells, read-out: Ratio IC50
# [14] = Ratio of compound IC50 to dehydrozingerone IC50 for antiproliferative activity against HSF cells; assay type: cell-based; conditions: human, read-out: Ratio IC50
# MCF7 [15] = test: Potency index, ratio of compound IC50 to dehydrozingerone IC50 for antiproliferative activity against human MCF7 cells; assay type: functional
# PC-3 [16] = test: Potency index, ratio of compound IC50 to dehydrozingerone IC50 for antiproliferative activity against human PC3 cells; assay type: functional
# A498 [17] = test: Potency index, ratio of compound IC50 to dehydrozingerone IC50 for antiproliferative activity against human A498 cells; assay type: functional
# SNB-19 [18] = test: Potency index, ratio of compound IC50 to dehydrozingerone IC50 for antiproliferative activity against human SNB19 cells; assay type: functional
# M14 [19] = test: Potency index, ratio of compound IC50 to dehydrozingerone IC50 for antiproliferative activity against human M14 cells; assay type: functional
# OVCAR-4 [20] = test: Potency index, ratio of compound IC50 to dehydrozingerone IC50 for antiproliferative activity against human OVCAR4 cells; assay type: functional
# NCI-H322M [21] = test: Potency index, ratio of compound IC50 to dehydrozingerone IC50 for antiproliferative activity against human NCI-H322M cells; assay type: functional
# HCT-15 [22] = test: Potency index, ratio of compound IC50 to dehydrozingerone IC50 for antiproliferative activity against human HCT15 cells; assay type: functional
# HCT-116 [23] = test: Potency index, ratio of compound IC50 to dehydrozingerone IC50 for antiproliferative activity against human HCT116 cells; assay type: functional
# MDA-MB-231 [24] = test: Potency index, ratio of compound IC50 to dehydrozingerone IC50 for antiproliferative activity against human MDA-MB-231 cells; assay type: functional
smiles,measurement,setting,value
CCCC1OCc2c(/C=C/C(C)=O)nc(C)c(O)c2CO1 (stereo unspecified),IC50,MCF7 [1],4.6 µM
same,IC50,HEK293,13 µM
COc1cccc2c1C(=O)c1c(O)c3c(c(O)c1C2=O)C[C@@](O)(C(=O)CO)C[C@@H]3O[C@H]1C[C@H](N)[C@H](O)[C@H](C)O1 [DOXORUBICIN],IC50,HEK293,1.2 µM
same,IC50,[2],2.2 µM
same,IC50,PC-3 [3],0.23 µM
same,IC50,A498 [4],6.1 µM
same,IC50,SNB-19 [5],0.15 µM
same,IC50,M14 [6],3.4 µM
same,IC50,OVCAR-4 [7],0.15 µM
same,IC50,NCI-H322M [8],29 µM
same,IC50,HCT-15 [9],2.2 µM
same,IC50,HCT-116 [10],0.4 µM
same,IC50,MDA-MB-231 [11],0.3 µM
COc1cc(/C=C/C(=O)CC(=O)/C=C/c2ccc(O)c(OC)c2)ccc1O,Activity,[12],Active
CC(=O)/C=C/c1nc(C)c(O)c2c1COC(C)(C)OC2,IC50,MCF7 [1],27 µM
same,IC50,HEK293,38 µM
CCC1OCc2c(/C=C/C(C)=O)cnc(C)c2O1 (stereo unspecified),IC50,MCF7 [1],3.9 µM
same,IC50,HEK293,36 µM
same,IC50,[2],18.9 µM
same,IC50,PC-3 [3],8.8 µM
same,IC50,A498 [4],17 µM
same,IC50,SNB-19 [5],6.7 µM
same,IC50,M14 [6],9.7 µM
same,IC50,OVCAR-4 [7],23.6 µM
same,IC50,NCI-H322M [8],10.6 µM
same,IC50,HCT-15 [9],2.1 µM
same,IC50,HCT-116 [10],4.1 µM
same,IC50,MDA-MB-231 [11],3.1 µM
same,selectivity ratio,[13],4.8
same,selectivity ratio,[14],7 to 211
same,Ratio IC50,MCF7 [15],7 - 211
same,Ratio IC50,PC-3 [16],7 - 211
same,Ratio IC50,A498 [17],7 - 211
same,Ratio IC50,SNB-19 [18],7 - 211
same,Ratio IC50,M14 [19],7 - 211
same,Ratio IC50,OVCAR-4 [20],7 - 211
same,Ratio IC50,NCI-H322M [21],7 - 211
same,Ratio IC50,HCT-15 [22],7 - 211
same,Ratio IC50,HCT-116 [23],7 - 211
same,Ratio IC50,MDA-MB-231 [24],7 - 211
same,Activity,[12],inactive
O=c1c(O)c(-c2ccc(O)c(O)c2)oc2cc(O)cc(O)c12,Activity,[12],Active
CCCCCCCCCC(C)C1OCc2c(/C=C/C(C)=O)cnc(C)c2O1 (stereo unspecified),IC50,MCF7 [1],2.4 µM
same,IC50,HEK293,7 µM
CCCCCCCCCC(C)C1OCc2c(/C=C/C(C)=O)nc(C)c(O)c2CO1 (stereo unspecified),IC50,MCF7 [1],2.9 µM
same,IC50,HEK293,1.4 µM
